Experimental data taken from patent US20250100962A1 (CITY OF HOPE, priority 2023, published 2025).
Entries after “also recorded” stand apart in the source; their conditions may differ.

Key:
[1] = tested on: primary myoblasts derived from patients with Duchene Muscular Dystrophy; experiment: Myogenic induction in human DMD primary myoblasts (immunoblot); assay type: cell-based; settings: 3 days of differentiation
Source text: FIGS. 40A-40B. Chlorhexidine and CM002 promote myogenic induction in human DMD primary myoblasts. Using primary myoblasts derived from patients with Duchene Muscular Dystrophy, we determined the effect of Chlorhexidine and CM002 on promoting myogenic induction.

[2] = In vivo pharmacokinetics after intravenous tail vein injection; parameters: species or system mouse; settings: 1 mg/kg intravenous
Protocol: FIGS. 47A-47C. In vivo PK study of CM002 by intravenous administration in C57/BL6 mice. We next performed pharmacokinetic analysis of CM002 in normal wild-type C57/BL6 mice to guide in vivo studies. Following intravenous delivery of CM002 via tail vein injection at 1 mg/kg of body weight in three mice of 12 weeks of age, we monitored its plasma concentrations at 6 hours (FIG. 47A) and 24 hours (FIG. 47B). […] Quantitative analysis of key pharmacokinetic parameters is shown in FIG. 47C, based on 1 mg/kg/day intravenous administration.

C57/BL6 mice = experiment: Metabolic cage monitoring of C57/BL6 mice after intraperitoneal injection; assay type: in vivo, mouse; settings: 5 mg/Kg IP daily
Protocol: To examine potential effects of CM002 on central clock located in suprachiasmatic nuclei that controls food intake, activity and sleep rhythms, we administered CM002 (5 mg/Kg) together with DMSO as vehicle control using daily IP injections in normal C57/BL6 mice. Mice received daily injections for 3 doses and their food and water intake, activity level and energy expenditure were monitored using metabolic cages for 3 days.

[3] = tested on: CLOCK and Bmal1 interaction; experiment: Co-immunoprecipitation of Bmal1 with Myc-CLOCK; assay type: cell-based
U2OS cells = experiment: Clock gene and protein expression in U2OS cells (immunoblot, RT-qPCR); assay type: cell-based; settings: 24 h
Protocol: (§1) Total protein (20-30 μg) was extracted using standard IP Lysis buffer (3% NaCl, 5% Tris-HCl, 10% Glycerol, 0.5% Triton X-10 in Sterile MilliQ water) and resolved on 10% SDS-Page gels followed by western blotting on Immun-Blot PVDF Membranes for Protein Blotting (Bio-rad). Antibodies used were diluted in 5% milk (Labscientific CN: M0841). Membranes were washed with TBS-T [10% TBS, 0.1% Tween™ 20 (Fisher BioReagents CN: BP377-500)]. Images were developed using Luminol solution 1:1 SuperSignal West Pico PLUS Stable Peroxide Solution (Thermo Scientific CN: 1863095) and SuperSignal West Pico PLUS Luminol Enhancer Solution (Thermo Scientific CN: 1863094) on chemiluminescence imager (GE Healthcare Bio-Sciences AB Amersham Imager 680).
(§2) Cells extracted with TRIzol™ Reagent (Ambion CN: 15596018) were collected. RNA extraction was performed with Chloroform (Fisher Chemical CN: C298-500) and Isopropanol (Fisher Chemical CN: A451SK-4) extraction followed by two purification steps with 75% Ethanol (Fisherbrand CN: HC-800-1GAL) and elution in Sterile MilliQ water.
(§3) The RNA concentration was measured using Nanodrop spectrophotometer (Thermo Fisher). Following RNA extraction, retro transcription was performed using RevertAid RT Reverse Transcription Kit (Thermo Fisher CN: K1691) and run on SimpliAmp Thermal Cycler (Thermo Fisher CN: A24811) according to the kit procedure. Quantitative PCR was performed using PowerUp™ SYBR™ Green Master Mix (Thermo Fisher CN: A25742) using a dilution of 5:2:1 master mix, RNA and H2Omq according to the protocol on ViiA 7 Real-Time PCR System (Applied Biosystems). Relative expression levels were determined using the comparative Ct method to normalize target genes to 36B4 internal controls.

C2C12 myoblasts = experiment: Clock and Wnt pathway gene/protein expression in C2C12 myoblasts during myogenic differentiation; assay type: cell-based, mouse
Protocol: as §1, §2, §3
Pictures were taken every day to monitor morphological progression, and proteins and RNA samples were collected on days indicated.

C2C12 myoblast cell line = experiment: MTT cell viability of C2C12 myoblasts; assay type: cell-based; settings: 0.2-5 μM for 48 hours
Protocol: Cells were seeded at 5×10^4 concentration in 100 μl culture medium into 96 wells flat bottom microplates and treated after 24 h with desired compounds and controls. After desired incubation periods, cells were treated with MTT labeling reagent 1× (MTT (3-[4,5-dimethylthiazol-2-yl]-2,5-diphenyltetrazolium bromide labeling reagent, 5 mg/ml in PBS, Roche Cell Proliferation Kit I (MTT)) and Solubilization buffer 1× (10% SDS in 0.01 M HCl and left overnight. Next morning absorbance was measured at 570 nm and 700 nm on microplate (ELISA) reader (TECAN infinite M200pro). The mean and standard deviation values were calculated for each well and graphed.
FIGS. 41A-41D. Effect of Chlorhexidine (CHX) and CM002 treatment on viability of mouse and human myoblasts. To determine potential toxic effects of CHX and CM002, we treated mouse C2C12 myoblast cell line with increasing concentrations from 0.2-5 μM for 48 hours and determined cell viability using the MTT assay (FIG. 41A). […] Considering the inflammatory milieus in dystrophic muscles, we further tested the tolerance of myoblasts to these molecules in the presence of inflammatory stimuli, a cytokine cocktail (CC) consisted of 10 ng/mL IL-1β, 100 ng/mL IFN-γ and 25 ng/mL of TNF-α (FIG. 41B). […] Lastly, human primary myoblasts derived from Duchene Muscular Dystrophy (DMD) patients were used to determine their tolerance to these compounds.

## CCCCCC/C=N/C(=N)NC(=N)Nc1ccc(Cl)cc1 [CM002]
[1]
  MyoD and Myogenin protein (myogenic factors): Robust inductions of MyoD and Myogenin protein
[1]; 0.2 and 0.5 μM
  Bmal1 protein expression: significantly elevated protein expression of Bmal1
[2]
  plasma level at half-life: ~100 ng/mL
  time of tissue re-distribution: ≤ 30 min
  time to being largely cleared: ≤ 24 h
[2]; C57/BL6 mice
  maximal plasma concentration: ~1.47 mg/L
[2]; mouse, plasma, C57/BL6 mice
  half-life: 6.76 ± 1.33 h
C57/BL6 mice
  daily ambulatory activity levels: tendency toward reduction although not significantly altered
  water consumption: remains comparable between groups
C57/BL6 mice; 3 doses, after 3 days
  accumulative food consumption, relative to normal food intake level: ~25%
C57/BL6 mice; calculated from oxygen consumption
  energy expenditure: persistently elevated

## [H]/N=C(\N/C(=N/[H])NCCCCCCNC(=N)NC(=N)Nc1ccc(Cl)cc1)Nc1ccc(Cl)cc1 [CHX, chlorhexidine]
[3]; Cysteine to Alanine mutant of CLOCK
  Bmal1 interaction with CLOCK C267 mutant: failed to increase Bmal1 interaction with CLOCK C267 mutant
[3]; wild-type CLOCK, CHX 0.5 and 1 μM
  Bmal1 immunoprecipitated by Myc-CLOCK (CLOCK/Bmal1 interaction): sufficient to augment their interaction
U2OS cells; RT-qPCR
  CLOCK and Bmal1 transcripts: markedly up-regulated
  Dbp, Nr1d1, Nr1d2 and Cry2 transcripts: stimulated
U2OS cells; immunoblot
  Bmal1 protein expression: elevated Bmal1 expression at 0.2 and 0.5 μM
  CLOCK protein levels: sufficient to induce CLOCK protein levels
  Rev-erbα (Nr1d1) and Period 2 (Per 2) protein: induced by CHX in a largely dose-dependent manner
C2C12 myoblasts; 0.5 uM, through 6 days of differentiation
  CLOCK and Bmal1 protein levels with targets Rev-erbα and Cry2: robustly stimulated
C2C12 myoblasts; BMKD myoblasts
  induction of Wnt10a, Fzd5 and β-catenin in Bmal1-deficient myoblasts: completely abolished in Bmal1-deficient myoblasts; also recorded: abolished in Bmal1-deficient cells
C2C12 myoblasts; day 4 of myogenic differentiation, vs scrambled control
  induction of Clock, Bmal1, Rev-erbα and Per2 in Bmal1 shRNA (BMKD) cells: completely abolished in the BMKD cells
C2C12 myoblasts; scrambled control (SC) myoblasts, RT-qPCR
  Wnt10a, Fzd5 and β-catenin expression: significantly induced by CHX at 0.5 μM with tendency toward induction at 0.2 μM
C2C12 myoblast cell line
  concentration at which number of viable cells drops: 2500 nM
